Here are results for five compounds from ChEMBL document CHEMBL1123447, “Biologically active derivatives of gossypol: synthesis and antimalarial activities of peri-acylated gossylic nitriles” (J Med Chem, 1986).

Assay [1] has as its system Plasmodium falciparum. In words: Antimalarial activity against chloroquine-resistant Plasmodium falciparum FCB/NC1. It is filed as functional, organism-based.
In assay [2] the test system is Plasmodium falciparum. In words: Antimalarial activity against chloroquine-sensitive Plasmodium falciparum CDC/I/HB-3. Format: functional, organism-based.
The nature of assay [3]: Compound was tested for the inhibition of LDH from a chloroquine-resistant strain (FCB/NC-1) of Plasmodium falciparum.

Broadly, the IC50 is the concentration at which inhibition is half-maximal. Low readings indicate greater potency in that assay, high ones weaker potency in that assay. What is called Ki is a dissociation constant, usually derived from enzyme kinetics or from competition with a known ligand. High values mean lower affinity, low ones higher affinity. For `CCC(=O)Oc1c(-c2c(C)cc3c(C(C)C)c(O)c(O)c(C#N)c3c2OC(=O)CC)c(C)cc2c(C(C)C)c(O)c(O)c(C#N)c12`, the IC50 worked out at 69 µM in the assay with Plasmodium falciparum [1] and 46 µM with Plasmodium falciparum [2]. Also, the Ki in assay [3] was 1.1 µM.
Take `CC(=O)Oc1c(-c2c(C)cc3c(C(C)C)c(O)c(O)c(C#N)c3c2OC(C)=O)c(C)cc2c(C(C)C)c(O)c(O)c(C#N)c12`: the IC50 was found to be 76 µM in the assay with Plasmodium falciparum [1] and 36 µM in the assay with Plasmodium falciparum [2]. This compound also returned a Ki in assay [3] of 0.83 µM.
The matching figures for `CCCCC(=O)Oc1c(-c2c(C)cc3c(C(C)C)c(O)c(O)c(C#N)c3c2OC(=O)CCCC)c(C)cc2c(C(C)C)c(O)c(O)c(C#N)c12`: 16 µM, 12 µM and 0.33 µM.
The matching figures for `CCCC(=O)Oc1c(-c2c(C)cc3c(C(C)C)c(O)c(O)c(C#N)c3c2OC(=O)CCC)c(C)cc2c(C(C)C)c(O)c(O)c(C#N)c12`: 26 µM, 21 µM and 0.62 µM.
With `Cc1cc2c(C(C)C)c(O)c(O)c(C=O)c2c(O)c1-c1c(C)cc2c(C(C)C)c(O)c(O)c(C=O)c2c1O` [GOSSYPOL], the IC50 in the assay on Plasmodium falciparum [1] is 13 µM; in the assay with Plasmodium falciparum [2], 7 µM.
